Data as given in US20100015249A1, “Antitumor agent containing 6'-amidino-2'-naphthyl 4-guanidinobenzoate or salt thereof” (priority 2005, published 2010).

Experiments:
IκBα = assay: Western blot of IκBα / phosphorylated IκBα in cytoplasm extracts; format: cell-based, human
Description: The human pancreas cancer cell line MDAPanc-28 was treated with various concentrations of FUT to examine the effect on IκBα. Cytoplasm extracts were extracted from cells treated with various concentrations of FUT according to the method generally known and Western blot was performed to detect each protein. More specifically, each lane was loaded with 50 μg of protein to perform electrophoresis. The gel was then transferred to a PVDF membrane (Osmonics). After blocking with PBS containing 5% nonfat milk for 2 hours at room temperature, primary antibody (anti-IκBα antibody) diluted with PBS containing 0.1% nonfat milk was added for reaction at 4° C. overnight. After rinsing with PBS, the PVDF membrane was then reacted with secondary antibody solution diluted with PBS containing 0.1% nonfat milk for 2 hours at room temperature. Proteins were detected by using Lumi-Light Western Blotting Substrate.

MMP-9 = assay: Western blot of MMP-9 expression; format: cell-based, human; conditions: MDAPanc-28 cytoplasmic fraction, 0 or 80 μg/ml FUT
Description: Cytoplasmic fraction was prepared from the human pancreas cancer cell line […]-28 treated with either 0 μg/ml or 80 μg/ml of FUT. Western blot was performed for the obtained cytoplasmic proteins to examine MMP-2 and MMP-9 expression. More specifically, the experiment was performed by the method described in Example 2. Rabbit polyclonal anti-MMP-2 antibody, goat polyclonal anti-MMP-9 antibody and mouse anti-B-actin antibody (Santa Cruz Biotechnology, Inc.) were used for detection.

IKK1 = biological target: T1, IKK1 (Homo sapiens, UniProt O15111); assay: IKK immunoprecipitation kinase assay and Western blot after FUT treatment of cells; format: cell-based
T1 construct: endogenous in cells; host or cells: MDAPanc-28 (human pancreas cancer cell line)
T1 sequence (O15111 whole entry): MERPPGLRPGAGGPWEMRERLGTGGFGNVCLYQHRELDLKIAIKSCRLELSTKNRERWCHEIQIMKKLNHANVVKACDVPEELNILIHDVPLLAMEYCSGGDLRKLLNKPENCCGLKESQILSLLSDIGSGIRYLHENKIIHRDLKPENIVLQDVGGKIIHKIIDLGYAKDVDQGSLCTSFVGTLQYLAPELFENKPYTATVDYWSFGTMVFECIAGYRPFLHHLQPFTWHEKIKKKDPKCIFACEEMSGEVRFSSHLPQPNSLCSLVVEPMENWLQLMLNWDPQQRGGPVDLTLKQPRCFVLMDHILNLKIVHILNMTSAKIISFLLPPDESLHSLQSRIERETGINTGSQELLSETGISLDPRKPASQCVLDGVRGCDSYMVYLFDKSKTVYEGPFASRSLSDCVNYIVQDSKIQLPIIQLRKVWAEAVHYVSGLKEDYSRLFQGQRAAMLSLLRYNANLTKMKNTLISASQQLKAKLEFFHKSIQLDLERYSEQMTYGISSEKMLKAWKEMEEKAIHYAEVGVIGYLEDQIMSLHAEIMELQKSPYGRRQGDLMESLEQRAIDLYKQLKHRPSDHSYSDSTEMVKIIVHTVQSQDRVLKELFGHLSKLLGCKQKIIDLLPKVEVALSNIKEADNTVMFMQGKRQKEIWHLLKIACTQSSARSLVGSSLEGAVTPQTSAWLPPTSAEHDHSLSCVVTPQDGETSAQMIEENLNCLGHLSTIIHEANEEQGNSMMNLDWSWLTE
T1 sequence (O14920 whole entry partner): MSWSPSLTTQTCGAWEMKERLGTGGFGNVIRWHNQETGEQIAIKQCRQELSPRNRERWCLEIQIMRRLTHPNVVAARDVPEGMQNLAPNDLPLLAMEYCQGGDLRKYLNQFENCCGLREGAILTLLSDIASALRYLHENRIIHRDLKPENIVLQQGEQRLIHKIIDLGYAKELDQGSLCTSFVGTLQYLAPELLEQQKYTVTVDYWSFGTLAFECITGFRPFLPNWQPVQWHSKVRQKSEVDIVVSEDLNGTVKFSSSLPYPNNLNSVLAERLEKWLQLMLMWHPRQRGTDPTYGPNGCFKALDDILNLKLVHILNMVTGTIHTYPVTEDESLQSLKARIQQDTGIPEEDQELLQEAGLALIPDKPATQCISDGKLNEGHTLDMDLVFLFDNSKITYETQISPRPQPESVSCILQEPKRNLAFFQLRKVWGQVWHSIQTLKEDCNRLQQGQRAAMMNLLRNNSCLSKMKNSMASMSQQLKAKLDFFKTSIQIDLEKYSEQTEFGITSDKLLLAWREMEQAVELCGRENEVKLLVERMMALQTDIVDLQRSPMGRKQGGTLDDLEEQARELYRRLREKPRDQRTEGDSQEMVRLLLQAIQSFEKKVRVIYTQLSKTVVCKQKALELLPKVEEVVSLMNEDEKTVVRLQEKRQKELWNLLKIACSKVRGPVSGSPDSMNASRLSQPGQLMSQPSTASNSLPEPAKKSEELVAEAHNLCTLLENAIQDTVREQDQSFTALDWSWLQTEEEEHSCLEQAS
T1 sequence (Q9Y6K9 whole entry partner): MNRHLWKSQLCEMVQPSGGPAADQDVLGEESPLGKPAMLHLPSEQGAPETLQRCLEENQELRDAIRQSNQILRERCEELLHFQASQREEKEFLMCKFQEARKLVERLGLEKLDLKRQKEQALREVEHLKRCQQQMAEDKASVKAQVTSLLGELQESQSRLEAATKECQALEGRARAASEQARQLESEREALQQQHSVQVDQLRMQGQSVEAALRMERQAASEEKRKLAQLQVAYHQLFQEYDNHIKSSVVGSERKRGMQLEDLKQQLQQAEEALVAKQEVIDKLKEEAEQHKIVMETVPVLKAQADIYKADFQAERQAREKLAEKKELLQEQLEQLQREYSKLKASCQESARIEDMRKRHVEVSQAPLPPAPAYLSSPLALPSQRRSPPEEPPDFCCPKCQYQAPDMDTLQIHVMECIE
Description: (§1) After FUT treatment, the human pancreas cancer cell line […]-28 was rinsed with ice-cold PBS to prepare 800 μg of cytoplasmic fraction. After adding glutathione sepharose beads (Amersham Pharmacia Biotech), the sample was invertedly mixed at 4° C. for 3 hours to remove non-specific absorption fractions. 4 μg of anti-IKK1/2 antibody (Santa Cruz Biotechnology) were added to the supernatant for reaction at 4° C. overnight. After adding glutathione sepharose beads, the sample was further mixed at 4° C. for 3 hours. The beads containing bound immunocomplex were rinsed twice with PBS and then subjected to immunoprecipitation and measurements of enzyme activity. To conduct the measurements of enzyme activity, the above mentioned beads were rinsed with kinase buffer (25 mM HEPES containing 150 mM NaCl, 25 mM beta-glycerophosphate and 10 mM MgCl2) to perform enzyme reaction. 5 uCi of ^32P-labeled y-ATP and 1 μg of the substrate GST-IκBα were reacted in the kinase buffer for 30 minutes at 37° C. The reaction was terminated by adding SDS sample buffer. The sample was analyzed by SDS-PAGE followed by autoradiography for detection.

IKK2 = biological target: T2, IKK2 (Homo sapiens, UniProt O14920); assay: as above; format: cell-based
T2 construct: endogenous in cells; host or cells: MDAPanc-28 (human pancreas cancer cell line)
T2 sequence (O14920 whole entry): as the sequence (O14920 whole entry partner) above
T2 sequence (O15111 whole entry partner): as the sequence (O15111 whole entry) above
T2 sequence (Q9Y6K9 whole entry partner): as the sequence (Q9Y6K9 whole entry partner) above
Description: as §1

caspase 8 = assay: Western blot of caspase 8 activation; format: cell-based, human
Description: The present inventors examined whether apoptosis signaling cascade is triggered with the elevation of TNFRI expression induced by FUT treatment, using caspase 8 as an indicator. Cytoplasmic fraction was prepared from the human pancreas cancer cell line MDAPanc-28 treated with various concentrations of FUT for 24 hours. Western blot was performed and subjected to the detection with anti-caspase 8 antibody (Santa Cruz Biotechnology) (FIG. 6-a). Western blot was performed to examine temporal changes in the expression of caspase 8, p-FADD, Bid and jBid under a constant concentration of FUT (80 μg/ml) at short intervals from 0 to 24 hours of treatment (FIGS. 6-b, 6-c and 6-d). Anti-FADD antibody was obtained from Santa Cruz Biotechnology and anti-Bid antibody was obtained from BD Pharmingen.
After the following treatment on the human pancreas cancer cell line MDAPanc-28, plasmatic compartment was prepared and Western blot was performed to examine the expression of phosphorylated FADD, caspase 8, NF-κB and IκBα. […] The same was true for IκBα expression (FIG. 7-c).

TNFRI = TNFRI expression by Northern blot and Western blot; format: cell-based, human
Description: A cDNA probe for hybridization was constructed by the following method. After FUT treatment, RNA was extracted from the human pancreas cancer cell line […]-28 by using TRIZOL Reagent (Life Technologies, Inc.) 15 μg of RNA was subjected to electrophoresis on a 1% denatured formaldehyde agarose gel and transferred to a nylon membrane. RT-PCR was performed in order to construct a cDNA probe to be used for the detection of TNFRI mRNA. With this RT-PCR, primers represented by SEQ ID Nos: 5 and 6 were used. The obtained cDNA was inserted into the pCR2.1-TOPO vector. […] The obtained cDNA probe was labeled with α-^32P dCTP by using the random labeling kit (Roche) and used for hybridization. The expression of TNFRI mRNA was confirmed by Northern blot method with the above mentioned probe according to the method generally known. […] Also, TNFRI expression on the cell surface was detected by Western blot method. More specifically, the experiment was performed by the method similar to the method described in Example 2. Mouse monoclonal anti-TNFR1 (H-5; Santa Cruz Biotechnology) was used for detection.

NF-κB = assay: Gel shift assay of active NF-κB in nuclear extracts; format: cell-based, human
Description: The human pancreas cancer cell line MDAPanc-28 was treated with various concentrations of FUT to examine the effect on NF-κB activation. NF-κB is constantly activated in the MDAPanc-28 cell line. A gel shift assay with a κB probe was performed using the nuclear extracts from cells treated with various concentrations of FUT to detect NF-κB which was activated and translocated into the nucleus. More specifically, 10 μg of nuclear extracts were reacted with 1 μg of poly (dI-dC) (Pharmacia, Picataway, N.J.) in binding buffer (75 mM NaCl, 15 mM Tris-HCl, pH 7.5, 1.5 mM dithiothreitol, 25% glycerol and 20 mg/ml bovine serum albumin) for 30 minutes at 4° C. ^32P-labeled oligonucleotide probes (SEQ ID Nos: 1 to 4) were then added for reaction for 20 minutes at room temperature and electrophoresis was performed (4% polyacrylamide gel, 0.25×TBE; 22.5 mM Tris, 22.5 mM borate and 500 μM EDTA, pH 8.0). After drying at 80° C. for 1 hour, the gel was exposed to Kodak film (Eastman Kodak Co., Rochester, N.Y.) at −80° C. for detection. Oct-1 was used as a positive control.

[1] = MDAPanc-28, time after addition of FUT up to 48 hours
[2] = MDAPanc-28, various concentrations of FUT
[3] = MDAPanc-28 cytoplasmic fraction, before and after FUT treatment
[4] = immunoprecipitate from FUT-treated MDAPanc-28, substrate GST-IκBα

## N=C(N)c1ccc2cc(OC(=O)c3ccc(N=C(N)N)cc3)ccc2c1 [FUT, 6-amidino-2-naphthyl p-guanidinobenzoate dimethanesulfonate]
IκBα; MDAPanc-28, over time after adding FUT
  level of phosphorylated IκBα in the cytoplasm: declines overtime
IκBα; [1]
  level of IκBα in the cytoplasm over time: increases along the progression of NF-κB inactivation up to 24 hours after addition of FUT and then is restored to a steady-state level after 48 hours
IκBα; [2]
  level of IκBα in the cytoplasm: increased by FUT in a concentration-dependent manner
MMP-9
  MMP-9 expression: inhibited by FUT in a concentration-dependent manner
IKK1; [3]
  expression level of IKK1: remain intact
IKK1; [4]
  enzyme activity of IKK1: reduces the enzyme activities of IKK1 and IKK2
IKK2; [3]
  expression level of IKK2: remain intact
IKK2; [4]
  enzyme activity of IKK2: reduces the enzyme activities of IKK1 and IKK2
Caspase 8; MDAPanc-28, FUT 80 μg/ml pretreatment then TNF-α 5 ng/ml 24 hours, compared to FUT alone
  caspase 8 activation with TNF-α stimulation: enhanced FADD phosphorylation and caspase 8 activation
Caspase 8; MDAPanc-28, FUT 80 μg/ml, 0 to 24 hours
  caspase 8 activation over time: later on promoted caspase 8 activation
Caspase 8; MDAPanc-28, various concentrations of FUT for 24 hours
  caspase 8 activation: activated by FUT in a concentration-dependent manner
Caspase 8; cells with TNFRI expression downregulated using siRNA, after FUT treatment
  caspase 8 activation in TNFRI-downregulated cells: nor caspase 8 activation
TNFRI; MDAPanc-28, Northern blot
  level of TNFRI mRNA expression: increased in a FUT concentration-dependent manner
TNFRI; MDAPanc-28, Western blot
  TNFRI expression on the cell surface: increased TNFRI expression on the cell surface
NF-κB; [1]
  NF-κB activation over time: inhibited overtime up to 24 hours after addition of FUT and then was restored to a steady-state level at 48 hours
NF-κB; [2]
  NF-κB activation: inhibited NF-κB activation in a concentration-dependent manner
